Results published in US20230143751A1, “Aromatic Compound And Use Thereof In Preparing Antineoplastic Drugs” (Shanghai Zheye Biotechnology Co. Ltd., priority 2020, published 2023).
Where two headings read alike, the source gives them in different places.

Columns and labels:
[1] = system: NCI-H358 cells; experiment: Cell proliferation activity of NCI-H358 by CellTiter-Glo reagent; assay type: cell-based; conditions: Homo sapiens, NCI-H358; test 8, method of test 3; read-out: IC50 of proliferation inhibitory activity of the compound on NCI-H358 cell line
Procedure, shortened: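 NCI-H358 cells seeded at 2000–3000 per well and grown overnight at 37° C, 5% CO2 before compound exposure. Viability read by CellTiter-Glo luminescence; IC50 from curve fitting.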

[2] = system: MIA PaCa-2-derived xenograft tumor; experiment: Pharmacodynamics test of MIA PaCa-2-derived xenograft tumor model in nude mice (test 6); assay type: in vivo
Procedure: Animal species and number: Balb/c Nude; 6 animals per group.
Test samples: Compound 3-2, Compound 3-6, Compound 3-20, Compound 3-12M.
Test groups: blank solvent control group; Compound 3-2 (10 mg/kg, QD×15 days), Compound 3-6 (10 mg/kg, QD×15 days), Compound 3-20 (10 mg/kg, QD×15 days), Compound 3-12M (10 mg/kg, QD×15 days).
Animal model establishment: MIA paca-2 tumor cells in logarithmic growth phase were cultured in vitro and collected, and inoculated subcutaneously into the right back of nude mice at a quantity of 5×10^6 cells/each. When the tumor volume reached 150-300 mm^3, the tumor-bearing nude mice were randomly grouped. Subsequently, the animals in each group were administered, and the day of the first administration was defined as day 1 of the test.
Administration route and frequency: oral administration by gavage; once a day.
General state observation: observation time and frequency: once a day; observation indexes or contents: including but not limited to administration location, appearance and signs, general behavioral activities, mental status, death and other abnormal performance of the animals. The animals were euthanized at the end of the test.
Tumor volume calculation: V=½×long diameter×short diameter^2 (mm^3). Tumor growth inhibition rate TGI (%) is used to evaluate the tumor inhibition efficacy of the compounds. TGI (%)=[1−(mean tumor volume in treatment group at the end of administration−mean tumor volume in treatment group at the beginning of administration)/(mean tumor volume in control group at the end of administration−mean tumor volume in control group at the beginning of administration)]×100%.

[3] = system: NCI-H358; experiment: Cell proliferation inhibitory activity on NCI-H358, 3D model test (agarose colony formation); assay type: cell-based
Procedure: 100 μl of agarose gel with a high concentration was spread in a 96-well plate as the bottom agarose gel layer. Agarose with a low concentration and growth medium containing cells were mixed and then spread on the bottom agar layer, cooled and solidified, then incubated overnight at 37° C. Mother solutions were prepared from the test compounds by using DMSO, and then subjected to gradient elution with RPMI 1640 growth medium. The solutions of test compounds with different concentrations after gradient elution were added to the 96-well plate comprising an upper layer of agar gel-cells. Solvent control well was set up and the plate was incubated in a CO2 incubator. The drug-containing medium was changed during the incubation period and the cell growth situation was observed. After the incubation, the cells were stained with NBT and the number of cell colony formation was counted, and the IC50 values of the compounds inhibiting cell proliferation were derived.

[4] = system: NCI-H358-derived xenograft tumor; experiment: Pharmacodynamics study of NCI-H358-derived xenograft tumor model, combination with Afatinib or Trametinib (test 10); assay type: in vivo, nude mice; conditions: i.g. QD×21 days, 3-2 10 mg/kg, Afatinib 10 mg/kg, Trametinib 0.1 mg/kg
Procedure: Animal species and number: Balb/c Nude; 6 animals per group. Test samples: […] Test groups: blank solvent control group; […] NCI-H358 tumor cells in logarithmic growth phase were cultured in vitro and collected, and inoculated subcutaneously into the right back of nude mice at a quantity of 5×10^6 cells/each. When the tumor volume reached 150-300 mm^3, the tumor-bearing nude mice were randomly grouped. Subsequently, the animals in each group were administered, and the day of the first administration was defined as day 1 of the test. Administration frequency: once a day. General state observation: observation time and frequency: once a day; observation indexes or contents: including but not limited to administration location, appearance and signs, general behavioral activities, mental status, death and other abnormal performance of the animals. The animals were euthanized at the end of the test. Tumor volume calculation: V=½×long diameter×short diameter^2 (mm^3).

[5] = system: MIA PaCa-2 cells; experiment: Cell proliferation activity of MIA PaCa-2 by CellTiter-Glo reagent; assay type: cell-based; conditions: for IC50: Homo sapiens, MIA PaCa-2
Procedure: MIA PaCa-2 cells in exponential growth phase were digested with trypsin-EDTA, plated in a 96-well plate with 2000-3000 cells per well, and incubated overnight at 37° C. with 5% CO2. Mother solutions were prepared from the test compounds by using DMSO, subjected to gradient elution with DMEM growth medium, and then added into the 96-well plate and incubated in an incubator for 72 h at 37° C. with 5% CO2. After the incubation, CellTiter-Glo test reagent with an equal volume was added into each well and the obtained 96-well plate was incubated after shaking. The chemiluminescence values were determined by microplate reader, and the IC50 values of the test compounds inhibiting the proliferation of MIA PaCa-2 cells were fitted and calculated by GraphPad Prism software.
The test method of inhibitory activity was the same as that in Test 2 in “Biological Tests” part.

[6] = Preliminary safety test, 5-day escalating oral dosing in Balb/c mice; assay type: in vivo
Procedure: Test samples: Compound 3-2, Compound 3-6, Compound 3-12M, Compound 3-20, and Compound 4-8.
Animal species and number: Balb/c; 6 animals per group (half male and half female).
Administration mode: oral administration by gavage.
Animal grouping and administration dose: vehicle blank group, Compound 3-2 group (200 mg/kg, 400 mg/kg, 800 mg/kg), Compound 3-6 group (200 mg/kg, 400 mg/kg, 800 mg/kg), Compound 3-12M group (200 mg/kg, 400 mg/kg, 800 mg/kg), Compound 3-20 group (200 mg/kg, 400 mg/kg, 800 mg/kg), Compound 4-8 group (200 mg/kg, 400 mg/kg, 800 mg/kg).
Administration frequency: once a day for 5 days.
General clinical observations were performed 2 times a day (once in the morning and once in the afternoon) during the test period. Death, morbidity, respiration, secretions, feces, and diet, drinking situation and so on were observed, and the changes in body weight of the mice during the administration period were recorded. The animals in each group were euthanized after the administration, and all animals were dissected and subjected to gross observation.

C=CC(=O)N1CCN(c2nc(=O)n(-c3c(C)ccnc3C(C)C)c3nc(-c4ccccc4C=C)c(Cl)cc23)[C@@H](C)C1 [Compound 3-2]
IC50 [1]: 10 nM | inhibition effect on the growth of subcutaneously transplanted tumors derived from pancreatic cancer MIA paca-2 cells in nude mice (in words) ([2]; 10 mg/kg QD×15 days): significant inhibition effect | Tumor inhibition rate (%) ([2]; MIA PaCa-2 xenograft, nude mice, 10 mg/kg oral gavage QD×15 days): +++ (“+++” represents a tumor inhibition rate of >80%) | anti-cell proliferation activity against KRAS G12C mutant type cells NCI-H358 (in words) ([3]; 3D model test): significant anti-cell proliferation activity | IC50 ([3]; Homo sapiens, NCI-H358, 3D agarose colony formation, NBT staining): < 50 nM | Tumor inhibition rate (%) [4]: ++ (“++” represents a tumor inhibition rate of 130%˜200%) | anti-cell proliferation activity against KRAS G12C mutant type cells MIA PaCa-2 (in words) ([5]; 72 h, CellTiter-Glo): significant anti-cell proliferation activity | IC50 ([5]; 72 h, CellTiter-Glo, read-out: IC50 value of cell proliferation inhibitory activity of the compound on MIA PaCa-2): < 50 nM | IC50 ([5]; test 12, method of test 2, read-out: IC50 of proliferation inhibitory activity of the compound on MIA Paca-2 cell line): ≤ 15 nM | proliferation inhibitory activity on MIA Paca-2 cell line compared with Compound TM-2 (in words) ([5]; test 12): remarkable better | MTD at 5 days ([6]; both sexes, mouse, in vivo, oral gavage, 5 days, initially suggested, read-out: maximum tolerated dose): > 800 mg/kg | water and food intake, activity and body weight during the administration period (in words) ([6]; oral gavage once a day for 5 days, 200 to 800 mg/kg): no significant abnormality was showed
